US6017958A, “Method of treating malignant tumors with thyroxine analogues having no significant hormonal activity” (Octamer, Inc., priority 1997, dated 2000)
Where a name gives a salt, the structure may show the parent alone.

Experiments:
tumor = settings: parent 6-amino-1,2-benzopyrene; cited from earlier work
HIV = settings: parent 6-amino-1,2-benzopyrene; cited from earlier work
pADPRT = settings: parent 6-amino-1,2-benzopyrene; cited from earlier work
[1] = tested on: iodine uptake into the thyroid; settings: rat, in vivo; cited from earlier work
Rana pipiens tadpoles = settings: tadpole metamorphosis; cited from earlier work
[2] = tested on: mouse pituitary thyrotropic tumors / non-malignant mouse pituitary adenoma; settings: cited from earlier work
MDA-MB-231 cells = experiment: Flow cytometry / M phase block; assay type: cell-based, human; settings: colcemid 0.1 μg/ml, 4 hrs
Experimental: The MDA-MB-231 cell line was obtained from ATCC (Rockville, Md., USA) and cells were cultured in T-75 flasks at 37° C. in Minimum Essential Medium-alpha, supplemented with 10% FCS. In controls, not receiving DIME, 0.1 μg/ml colcemid was added to cultures for 4 hrs prior to the collection of metaphase-blocked cells and preparation of cell spreads. […] Cells (10^7) were isolated from T-75 trypsinization for 5 min with 0.025% trypsin, and sedimented by centrifugation, resuspended and kept in 10 ml of 75 mM KC1 at 37° C. for 10 min, resedimented, and fixed in 10 ml methanol-acetic acid, with four successive changes of methanol-acetic acid. An aliquot of the final cell suspension (100 μl) was dropped on ethanol-cleaned slides and air-dried.
Cells exposed to different treatments were grown to confluence, trypsinized, and washed with phosphate buffered saline (PBS). For nuclear analysis, cells were fixed in Vindelov Citrate cell buffer: sucrose 250 mM, trisodium citrate. 2H20 40 mM, DMSO 50 ml in 1000 ml solution, pH 7.6. Normal human lymphocytes obtained from blood were used as controls. Each cell sample and control was counted with a hemacytometer and the cell concentration was adjusted to 2×10^6 cells/ml. Two million cells from each cell line in a total volume of 2 ml were washed twice with fresh PBS, treated with 200 μg/ml RNAase at 37° C. for 30 min, and stained with 10 μg/ml propidium iodide for 45 min. Flow cytometric analysis was performed on a FACScan benchtop flow cytometer (Becton-Dickinson, San Jose, Calif., USA) equipped with an air-cooled argon laser tuned to 488 nm. Twenty thousand events were collected as six parameter list mode data for analysis and archival storage. Two light scatter parameters (forward and side), propidium iodide fluorescence measured at 575/26 nm and above 620 nm, and doublet discrimination by fluorescence pulse width and area were acquired at 1024 data channel resolution. Acquisition threshold was set on propidium iodide positive events above channel 100. Gating to exclude small debris, large clumps and cell doublets was done post acquisition.

Earl's L cells = settings: Kirshan, 1968; cited from earlier work

Nc1ccc2oc(=O)ccc2c1I [5-iodo-6-amino-1,2-benzopyrone]
antitumor action versus parent compound (tumor): significantly augmented
antiHIV activity versus parent compound (HIV): significantly augmented
pADPRT inhibitory potency versus parent compound (pADPRT): significantly augmented

N[C@@H](Cc1cc(I)c(Oc2cc(I)c(O)c(I)c2)c(I)c1)C(=O)O [thyroxine]
suppression of iodine uptake by the thyroid [1]: suppresses uptake of iodine by the thyroid
metamorphosis / cell differentiating activity (Rana pipiens tadpoles): induces cell differentiation
growth of mouse pituitary tumor [2]: depress growth of non-malignant mouse pituitary thyrotropic tumors

CN[C@H]1CCc2cc(OC)c(OC)c(OC)c2-c2ccc(OC)c(=O)cc21 [colcemid, reference compound]
cell cycle block in M phase, comparison of DIME and colcemid (MDA-MB-231 cells): indistinguishable with respect to the cell cycle block in M phase

CC[C@]1(O)C[C@@H]2CN(CCc3c([nH]c4ccccc34)[C@@](C(=O)OC)(c3cc4c(cc3OC)N(C)[C@H]3[C@@](O)(C(=O)OC)[C@H](OC(C)=O)[C@]5(CC)C=CCN6CC[C@]43[C@@H]65)C2)C1 [vinblastine sulfate]
metaphase block / multinucleation (Earl's L cells): induces metaphase blocked multinucleated cells
